{"source": "ChEMBL document CHEMBL6153028", "about": "“Understanding the synergistic sensitization of natural products and antibiotics: An effective strategy to combat MRSA” (2025)", "format_in_all_cases": "functional", "key": {"[1]": {"test_system": "Staphylococcus aureus", "test": "Synergistic antimicrobial activity against Staphylococcus aureus DSM 1104 planktonic cells assessed as fractional inhibitory concentration index in presence of gentamicin by checkerboard assay"}, "[2]": {"test_system": "Staphylococcus aureus", "test": "Synergistic antimicrobial activity against Staphylococcus aureus DSM 1104 planktonic cells assessed as fractional inhibitory concentration index in presence of oxacillin by checkerboard assay"}, "[3]": {"test_system": "Staphylococcus aureus", "test": "Synergistic antimicrobial activity against methicillin-resistant Staphylococcus aureus CCARM 3089 assessed as fractional inhibitory concentration index in presence of ciprofloxacin incubated for 24 hrs by checkerboard assay"}, "[4]": {"test_system": "Staphylococcus aureus", "test": "Synergistic antimicrobial activity against methicillin resistant Staphylococcus aureus assessed as fractional inhibitory concentration index incubated for 24 hrs in presence of ciprofloxacin by checkerboard assay"}, "[5]": {"test_system": "Staphylococcus aureus", "test": "Synergistic antibacterial activity against methicillin resistant Staphylococcus aureus assessed as fractional inhibitory concentration index in presence of erythromycin by checkerboard assay"}, "[6]": {"test_system": "Staphylococcus aureus", "test": "Synergistic antibacterial activity against methicillin resistant Staphylococcus aureus assessed as fractional inhibitory concentration index in presence of streptomycin incubated for 24 hrs by checkerboard assay"}, "[7]": {"test_system": "Staphylococcus aureus", "test": "Synergistic antibacterial activity against methicillin resistant Staphylococcus aureus assessed as fractional inhibitory concentration index in presence of ampicillin incubated for 24 hrs by checkerboard assay"}, "[8]": {"test_system": "Staphylococcus aureus", "test": "Synergistic antibacterial activity against methicillin resistant Staphylococcus aureus assessed as fractional inhibitory concentration index in presence of oxacillin incubated for 24 hrs by checkerboard assay"}, "[9]": {"test_system": "Staphylococcus aureus", "test": "Synergistic antibacterial activity against methicillin resistant Staphylococcus aureus assessed as fractional inhibitory concentration index in presence of penicillin incubated for 24 hrs by checkerboard assay"}, "[10]": {"test_system": "Staphylococcus aureus", "test": "Synergistic antimicrobial activity against methicillin-resistant Staphylococcus aureus assessed as fractional inhibitory concentration index in presence of levofloxacin by checkerboard assay"}, "[11]": {"test_system": "Staphylococcus aureus", "test": "Synergistic antimicrobial activity against methicillin-resistant Staphylococcus aureus assessed as fractional inhibitory concentration index in presence of chloramphenicol incubated for 24 hrs by checkerboard assay"}, "[12]": {"test_system": "Staphylococcus aureus", "test": "Synergistic antimicrobial activity against methicillin-resistant Staphylococcus aureus assessed as fractional inhibitory concentration index in presence of vancomycin by checkerboard assay"}, "[13]": {"test_system": "Staphylococcus aureus", "test": "Synergistic antibacterial activity against methicillin resistant Staphylococcus aureus assessed as fractional inhibitory concentration index in presence of penicillin by checkerboard assay"}, "[14]": {"test_system": "Staphylococcus aureus", "test": "Synergistic antibacterial activity against methicillin resistant Staphylococcus aureus assessed as fractional inhibitory concentration index in presence of ampicillin by checkerboard assay"}, "[15]": {"test_system": "Staphylococcus aureus", "test": "Synergistic antibacterial activity against methicillin resistant Staphylococcus aureus assessed as fractional inhibitory concentration index in presence of cephradine by checkerboard assay"}, "[16]": {"test_system": "Staphylococcus aureus", "test": "Synergistic antimicrobial activity against methicillin-resistant Staphylococcus aureus assessed as fractional inhibitory concentration index in presence of gentamicin incubated for 24 hrs by checkerboard assay"}, "[17]": {"test_system": "Staphylococcus aureus", "test": "Synergistic antimicrobial activity against methicillin-resistant Staphylococcus aureus assessed as fractional inhibitory concentration index in presence of minocycline incubated for 24 hrs by checkerboard assay"}, "[18]": {"test_system": "Staphylococcus aureus", "test": "Synergistic antimicrobial activity against methicillin-resistant Staphylococcus aureus CCARM 3089 assessed as fractional inhibitory concentration index in presence of pencillin incubated for 24 hrs by checkerboard assay"}, "[19]": {"test_system": "Staphylococcus aureus", "test": "Synergistic antimicrobial activity against methicillin-resistant Staphylococcus aureus assessed as fractional inhibitory concentration index in presence of ciprofloxacin incubated for 24 hrs by checkerboard assay"}, "[20]": {"test_system": "Staphylococcus aureus", "test": "Synergistic antibacterial activity against methicillin resistant Staphylococcus aureus assessed as fractional inhibitory concentration index in presence of minocycline by checkerboard assay"}, "[21]": {"test_system": "Staphylococcus aureus", "test": "Synergistic antimicrobial activity against methicillin-resistant Staphylococcus aureus CCARM 3089 assessed as fractional inhibitory concentration index in presence of Ceftiofur incubated for 24 hrs by checkerboard assay"}}, "data": [{"smiles": "O=C(/C=C/c1ccc(O)cc1)CC(=O)/C=C/c1ccc(O)cc1", "note": "[BISDEMETHOXYCURCUMIN]", "values": [{"measurement": "fractional inhibitory concentration index (FICI)", "setting": "[1]", "result": 0.1}, {"measurement": "fractional inhibitory concentration index (FICI)", "setting": "[2]", "result": 0.51}]}, {"smiles": "COc1cc(CNC(=O)CCCC/C=C/C(C)C)ccc1O", "note": "[CAPSAICIN]", "values": [{"measurement": "fractional inhibitory concentration index (FICI)", "setting": "[3]", "result": 0.18}]}, {"smiles": "COc1cc(/C=C/C(=O)CC(=O)/C=C/c2ccc(O)c(OC)c2)ccc1O", "note": "[CURCUMIN]", "values": [{"measurement": "fractional inhibitory concentration index (FICI)", "setting": "[4]", "result": 0.25}]}, {"smiles": "COc1ccc(-c2cc(=O)c3c(O)cc(O)cc3o2)cc1O", "note": "[DIOSMETIN]", "values": [{"measurement": "fractional inhibitory concentration index (FICI)", "setting": "[5]", "result": 0.28}]}, {"smiles": "CC(C)=CCc1cc([C@@H]2CC(=O)c3ccc(O)c(CC=C(C)C)c3O2)ccc1O", "note": "[GLABROL]", "values": [{"measurement": "fractional inhibitory concentration index (FICI)", "setting": "[6]", "result": 0.188}]}, {"smiles": "O=C(/C=C/c1ccc(O)cc1)c1ccc(O)cc1O", "note": "[ISOLIQUIRITIGENIN]", "values": [{"measurement": "fractional inhibitory concentration index (FICI)", "setting": "[7]", "result": 0.375}, {"measurement": "fractional inhibitory concentration index (FICI)", "setting": "[8]", "result": 0.312}, {"measurement": "fractional inhibitory concentration index (FICI)", "setting": "[9]", "result": 0.375}]}, {"smiles": "COc1c2ccoc2c(OC)c2oc(=O)ccc12", "note": "[ISOPIMPINELLIN]", "values": [{"measurement": "fractional inhibitory concentration index (FICI)", "setting": "[10]", "result": "<0.5"}, {"measurement": "fractional inhibitory concentration index (FICI)", "setting": "[11]", "result": "<0.5"}, {"measurement": "fractional inhibitory concentration index (FICI)", "setting": "[12]", "result": "<0.5"}]}, {"smiles": "O=C1C[C@@H](c2ccc(O)cc2)Oc2cc(O)ccc21", "note": "[LIQUIRTIGENIN]", "values": [{"measurement": "fractional inhibitory concentration index (FICI)", "setting": "[7]", "result": 0.375}, {"measurement": "fractional inhibitory concentration index (FICI)", "setting": "[8]", "result": 0.372}, {"measurement": "fractional inhibitory concentration index (FICI)", "setting": "[13]", "result": 0.375}]}, {"smiles": "O=c1cc(-c2ccc(O)c(O)c2)oc2cc(O)cc(O)c12", "note": "[LUTEOLIN]", "values": [{"measurement": "fractional inhibitory concentration index (FICI)", "setting": "[14]", "result": 0.125}, {"measurement": "fractional inhibitory concentration index (FICI)", "setting": "[15]", "result": 0.44}]}, {"smiles": "COc1c2ccoc2c(OCC=C(C)C)c2oc(=O)ccc12", "note": "[PHELLOPTERIN]", "values": [{"measurement": "fractional inhibitory concentration index (FICI)", "setting": "[16]", "result": "<0.5"}, {"measurement": "fractional inhibitory concentration index (FICI)", "setting": "[17]", "result": 0.5}]}, {"smiles": "Oc1cc(O)cc(Oc2c(O)cc(O)c3c2Oc2c(O)cc4oc5c(Oc6cc(O)cc(O)c6)c(O)cc(O)c5c4c2O3)c1", "note": "[PHLOROFUCOFUROECKOL A]", "values": [{"measurement": "fractional inhibitory concentration index (FICI)", "setting": "[18]", "result": 0.393}]}, {"smiles": "Oc1cc(O)cc(/C=C/c2ccc(O)c(O)c2)c1", "note": "[PICEATANNOL]", "values": [{"measurement": "fractional inhibitory concentration index (FICI)", "setting": "[19]", "result": 0.375}]}, {"smiles": "O=c1c(O)c(-c2ccc(O)c(O)c2)oc2cc(O)cc(O)c12", "note": "[QUERCETIN]", "values": [{"measurement": "fractional inhibitory concentration index (FICI)", "setting": "[20]", "result": "<=0.5"}]}, {"smiles": "O=c1c(O)cc([C@H]2Oc3cc(O)cc(O)c3C[C@H]2O)cc2c([C@H]3Oc4cc(O)cc(O)c4C[C@H]3O)cc(O)c(O)c12", "note": "[THEAFLAVIN]", "values": [{"measurement": "fractional inhibitory concentration index (FICI)", "setting": "[21]", "result": 0.187}]}]}
